{"source": "paper PMC7979765", "about": "“trans-Translation inhibitors bind to a novel site on the ribosome and clear Neisseria gonorrhoeae in vivo” (Nature Communications, 2021)", "key": {"[1]": {"tested_on": "trans-translation", "experiment": "microbe, parasite or virus in culture", "type": "cell-based, Escherichia coli", "conditions": "for Luminescence readout (Envision plate reader) / Luminescence, background subtracted (DMSO control): per replicate", "method": "To verify that MBX-4132 retains activity as an inhibitor of trans-translation, we measured its dose-dependent activity against the non-stop luciferase reporter assay strain E. coli SB75 ΔtolC::kan (pluc-trpAt) essentially as described, with modifications. Briefly, serial 1.5-fold dilutions of MBX-4132 in DMSO were transferred to 96-well assay plates (Costar 3195), followed by the addition of 50 µl of an overnight culture of SB75 ΔtolC::kan (pluc-trpAt) that had been diluted to a final OD600 of 0.4 with LB media supplemented with 100 µg ampicillin/ml and 1 mM IPTG. […] The assay plates were incubated at room temperature for 2 h, and 50 µl of BrightGlo (Promega) bioluminescence reagent was added to each well. After 10 min incubation, bioluminescence intensity was measured using an Envision multi-label plate reader (Perkin Elmer). Each assay comprised three technical replicates, and the experiment was repeated three times. The fold induction for each MBX-4132 treated sample as compared to the DMSO-only sample was calculated for each technical replicate, and the average and standard deviation of the three technical was calculated. The IC50 was determined using a 4-parameter nonlinear curve fitting algorithm (GraphPad Prism)."}, "[2]": {"tested_on": "trans-translation", "experiment": "In vitro trans-translation assay (S12 extract, nanoluc-ns, tmRNA-nl)", "type": "biochemical, Escherichia coli", "conditions": "in vitro reconstituted assay", "description": "The in vitro trans-translation assay is designed to produce the first 157 amino acids of nano-luciferase from a non-stop mRNA (nanoluc-ns) and add the C-terminal peptide […] via a mutant version of E. coli tmRNA (tmRNA-nl) to reconstitute an active nano-luciferase[45]. In this assay, the tagged nano-luciferase gene has >30,000-fold increase in activity over the peptide made in the absence of tmRNA-nl.\nS12 lysates were made according to the procedure of Kim, et al.[46]. Briefly, a culture of E. coli BL21 (DE3) cells containing a pET28 plasmid carrying the E. coli T7 polymerase gene was grown at 37 °C to an OD600 = 0.8, induced with 1 mM IPTG and grown for an additional 3 h. Cells were harvested by centrifugation at 20,000 × g for 10 min at 4 °C and the pellet was resuspended in buffer A (20 mM Tris-acetate (pH 8.2), 14 mM Mg(OAc)2, 60 mM potassium glutamate, 1 mM DTT). Cells were lysed by sonication, the lysate was clarified by centrifugation at 12,000 × g for 10 min, and the supernatant was stored at −80 °C.\nE. coli SmpB was purified as previously described. tmRNA-nl, a variant of E. coli tmRNA encoding the final 11 residues of nano-luciferase, was transcribed from the tmRNA-nl synthetic DNA sequence in vitro, purified, and folded as previously described for wild-type E. coli tmRNA[3]. The nanoluc-stop template DNA was prepared as previously described[3] by PCR amplification from pMC1 using T7 universal and nanoluc-stop primers. The nanoluc-ns was prepared in a similar manner using pMC1 with T7 universal and nanoluc-ns primers.\nFor in vitro trans-translation, tmRNA-nl and SmpB were premixed and stored on ice. S12 lysate (2 μl), freshly made polymix buffer (2 μl)[47] (final reaction concentrations 5 mM Hepes pH 7.6, 5 mM NH4Cl, 0.5 mM CaCl2, 1.5 mm MgCl2, 1 mM DTT, 8 mm putrescene, 2 mm ATP, 2 mM GTP, 1 mM CTP, 1 mM UTP, 0.3 mM each amino acid, 3 mg/ml E. coli tRNAs), nanoluc-ns template (0.5 μl; 60 ng) and 2 µl water were mixed and incubated at 37 °C for 5 min. This solution was dispensed to tubes containing 0.5 μl of different concentrations of an inhibitor prepared in 75% acetonitrile, 25% water, and incubated at 37 °C for 5 min. The tmRNA-nl/SmpB mixture (0.5 μl each, 2 μM final) was added to each tube and the samples were incubated at 37 °C for 1.5 h. NanoLuc substrate (Promega) was prepared according to the manufacturer’s instructions, one volume of this substrate solution was added to each sample tube, and the reactions transferred to a white 96-well plate. Luminescence readings were obtained using the SpectraMax i3 microplate reader. Data analysis was performed using GraphPad Prism 8."}, "[3]": {"experiment": "Liver microsome stability, murine", "type": "in vitro ADME, mouse", "summary_of_the_method": "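Compounds incubated with liver microsomes plus NADPH over 30 min; parent remaining quantified by reverse-phase LC/MS. Half-life from linear regression over several time points.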"}, "[4]": {"experiment": "Serum protein binding, murine", "type": "in vitro ADME, mouse", "conditions": "mouse, serum, murine serum; read-out: murine serum binding (% bound)", "method": "Serum protein binding was determined using an equilibrium dialysis method as described. The amount of compound in each chamber (buffer and serum) was measured using methods for reverse-phase liquid chromatography/mass spectroscopy methods that were customized for each compound."}, "[5]": {"experiment": "Aqueous solubility (nephelometric)", "type": "physicochemical", "conditions": "aqueous solution (buffer not named); single replicates"}, "[6]": {"experiment": "Solubility (formulated)", "type": "physicochemical"}, "[7]": {"tested_on": "Pseudomonas aeruginosa", "experiment": "MIC, microbroth dilution", "type": "cell-based"}, "[8]": {"conditions": "[Compound] 0.0625 µM, listed as MBX-3535"}, "[9]": {"conditions": "[Compound] 0.125 µM, listed as MBX-3535"}, "[10]": {"conditions": "[Compound] 0.1875 µM, listed as MBX-3535"}, "[11]": {"conditions": "[Compound] 0.25 µM, listed as MBX-3535"}, "[12]": {"conditions": "[Compound] 0.375 µM, listed as MBX-3535"}, "[13]": {"conditions": "[Compound] 0.5 µM, listed as MBX-3535"}, "[14]": {"conditions": "[Compound] 0.75 µM, listed as MBX-3535"}, "[15]": {"conditions": "[Compound] 1 µM, listed as MBX-3535"}, "[16]": {"conditions": "[Compound] 1.5 µM, listed as MBX-3535"}}, "note": "Values joined by “and” are separate entries in the source; they are usually repeats but may differ in a detail not shown here. Equal values may be shown once. Read-outs that look alike come from different tables or passages of the source.", "data": [{"smiles": "O=C(Nc1nnc(-c2ccc(F)cc2)o1)c1ccc(Cl)cc1", "note": "[KKL-35, 4-chloro-N-(5-(4-fluorophenyl)-1,3,4-oxadiazol-2-yl)benzamide]", "values": [{"measurement": "IC50", "setting": "[1]; Eco Luc reporter, one value per replicate, listed as MBX-3535, read-out: IC50", "result": "138 nM and 152 nM"}, {"measurement": "IC50", "setting": "[1]; Escherichia coli, E. coli non-stop luciferase reporter, Fig. 1B, read-out: in vivo luc-trpAt IC50", "result": 100, "unit": "nM"}, {"measurement": "IC50", "setting": "[1]; Escherichia coli, Eco Luc reporter, one value per replicate, read-out: IC50", "result": 156, "unit": "nM"}, {"measurement": "Luminescence readout (Envision plate reader)", "setting": "[1]; [Compound] 0.046875 µM, listed as MBX-3535", "result": "793720 and 792160 and 789800"}, {"measurement": "Luminescence readout (Envision plate reader)", "setting": "[1]; [8]", "result": "778080 and 758560 and 769120"}, {"measurement": "Luminescence, background subtracted (DMSO control)", "setting": "[1]; [8]", "result": "-25080 and -11160 and -10320"}, {"measurement": "Luminescence readout (Envision plate reader)", "setting": "[1]; [Compound] 0.09375 µM, listed as MBX-3535", "result": "796160 and 783440 and 809640"}, {"measurement": "Luminescence readout (Envision plate reader)", "setting": "[1]; [9]", "result": "838680 and 824680 and 839280"}, {"measurement": "Luminescence, background subtracted (DMSO control)", "setting": "[1]; [9]", "result": "35520 and 54960 and 59840"}, {"measurement": "Luminescence readout (Envision plate reader)", "setting": "[1]; [10]", "result": "931120 and 911280 and 917880"}, {"measurement": "Luminescence, background subtracted (DMSO control)", "setting": "[1]; [10]", "result": "127960 and 141560 and 138440"}, {"measurement": "Luminescence readout (Envision plate reader)", "setting": "[1]; [11]", "result": "975560 and 925440 and 953800"}, {"measurement": "Luminescence, background subtracted (DMSO control)", "setting": "[1]; [11]", "result": "172400 and 155720 and 174360"}, {"measurement": "Luminescence readout (Envision plate reader)", "setting": "[1]; [12]", "result": "918760 and 868800 and 899520"}, {"measurement": "Luminescence, background subtracted (DMSO control)", "setting": "[1]; [12]", "result": "115600 and 99080 and 120080"}, {"measurement": "Luminescence readout (Envision plate reader)", "setting": "[1]; [13]", "result": "894760 and 832920 and 864960"}, {"measurement": "Luminescence, background subtracted (DMSO control)", "setting": "[1]; [13]", "result": "91600 and 63200 and 85520"}, {"measurement": "Luminescence readout (Envision plate reader)", "setting": "[1]; [14]", "result": "938080 and 885720 and 902440"}, {"measurement": "Luminescence, background subtracted (DMSO control)", "setting": "[1]; [14]", "result": "134920 and 116000 and 123000"}, {"measurement": "Luminescence readout (Envision plate reader)", "setting": "[1]; [15]", "result": "1090520 and 985400 and 1035440"}, {"measurement": "Luminescence, background subtracted (DMSO control)", "setting": "[1]; [15]", "result": "287360 and 215680 and 256000"}, {"measurement": "Luminescence readout (Envision plate reader)", "setting": "[1]; [16]", "result": "1101720 and 996520 and 1037480"}, {"measurement": "Luminescence, background subtracted (DMSO control)", "setting": "[1]; [16]", "result": "298560 and 226800 and 258040"}, {"measurement": "IC50", "setting": "[2]", "result": 400, "unit": "nM"}, {"measurement": "liver microsome stability (in words)", "setting": "[3]", "result": "rapidly hydrolyzed"}, {"measurement": "half-life", "setting": "[3]; mouse, murine liver microsomes, read-out: MMS / Microsomal Stability (t1/2), murine", "result": "< 5", "unit": "min"}, {"measurement": "Average MLMS t½", "setting": "[3]; murine liver microsomes, average of replicates", "result": "<5", "unit": "min"}, {"measurement": "MLMS t½", "setting": "[3]; murine liver microsomes, individual replicates", "result": "<5", "unit": "min"}, {"measurement": "fraction unbound", "setting": "[4]", "result": "< 0.01"}, {"measurement": "Solubility", "setting": "[5]", "result": 6.3, "unit": "µM"}, {"measurement": "Solubility", "setting": "[6]", "result": 1000, "unit": "µg/mL"}, {"measurement": "MIC", "setting": "[7]; Pseudomonas aeruginosa ATCC 27853, replicates", "result": "≥32", "unit": "µg/mL"}, {"measurement": "MIC", "setting": "[7]; Pseudomonas aeruginosa, ATCC27853, Pseudomonas aeruginosa ATCC 27853, replicates, read-out: MIC", "result": "≥ 32", "unit": "µg/mL"}, {"measurement": "MIC", "setting": "[7]; Pseudomonas aeruginosa, ATCC27853, strain ATCC 27853, read-out: MIC", "result": "> 32", "unit": "µg/mL"}]}]}
